Measurements: ChEMBL document CHEMBL1141486, “Synthesis and biological evaluation of novel 1,3,5-triazine derivatives as antimicrobial agents” (Bioorg Med Chem Lett, 2008)
Activity calls are given as the source filed them. The rule behind the calls is not given here.

How the values were obtained:
[1] = Hemolytic activity in red blood cells at 100 uM; assay type: ADME, cell-based, Erythrocyte; conditions: read-out: Activity
[2] = test system: Bacillus subtilis; assay: Antibacterial activity against Bacillus subtilis […] by microdilution method; assay type: functional, organism-based
[3] = test system: Bacillus anthracis; assay: Antibacterial activity against Bacillus anthracis by microdilution method; assay type: functional, organism-based
[4] = test system: Escherichia coli; assay: Antibacterial activity against ampicillin and streptomycin-resistant Escherichia coli D31 by microdilution method; assay type: functional, organism-based
[5] = test system: Acinetobacter baumannii; assay: Antibacterial activity against Acinetobacter baumannii ATCC BAA747 by microdilution method; assay type: functional, organism-based
[6] = test system: Staphylococcus aureus; assay: Antibacterial activity against multi-drug resistant Staphylococcus aureus ATCC BAA44 by microdilution method; assay type: functional, organism-based
[7] = Hemolytic activity in red blood cells; assay type: ADME, cell-based, Erythrocyte; conditions: read-out: HD50 (the source's name)
[8] = Effect on disruption of membrane integrity using […]-2-oleoyl-sn-glycero-3-[phospho-rac-(1-glycerol)] lipid vesicle at 70 uM by calcein dye leakage assay; assay type: functional
[9] = Effect on disruption of membrane integrity using […]-2-oleoyl-sn-glycero-3-[phospho-rac-(1-glycerol)] lipid vesicle at 50 uM by calcein dye leakage assay; assay type: functional
[10] = Effect on disruption of membrane integrity using […]-2-oleoyl-sn-glycero-3-[phospho-rac-(1-glycerol)] lipid vesicle at 90 uM by calcein dye leakage assay; assay type: functional

Question: Which hemolysis at 100 µM [1] does the source give for `CCCCN(CCCC)CCCNc1nc(NC2CCCCC2)nc(NC23CC4CC(CC(C4)C2)C3)n1` here?
Answer: Its hemolysis at 100 µM is < 10%.

Question: With `NCCCNc1nc(NC2CCCCCC2)nc(NC23CC4CC(CC(C4)C2)C3)n1` as the compound, how does the IC50 [2] read?
Answer: Its IC50 is 4.7 µM.

Question: For `CCCCN(CCCC)CCCNc1nc(NC2CCCCCCC2)nc(NC23CC4CC(CC(C4)C2)C3)n1`, which IC50 [3] is on record?
Answer: The IC50 was 86 µM.

Question: And the IC50 [4]?
Answer: Its IC50 is 550 µM.

Question: And the IC50 [2]?
Answer: Its IC50 is 2 µM.

Question: And the IC50 [5]?
Answer: The IC50 was 84 µM.

Question: And the IC50 [6]?
Answer: Its IC50 is 70 µM.

Question: What about the HC50 [7] of the same compound?
Answer: Its HC50 is > 3.5 mM.

Question: For `CCCCN(CCCC)CCCNc1nc(NC2CC3CCC2C3)nc(NC23CC4CC(CC(C4)C2)C3)n1` (centres undefined), which IC50 [2] is on record?
Answer: Its IC50 is 7.6 µM.

Question: With `CCCCN(CCCC)CCCNc1nc(NC23CC4CC(CC(C4)C2)C3)nc(N(CCC)CC2CC2)n1` as the compound, how does the IC50 [2] read?
Answer: Its IC50 is 5 µM.

Question: With `CCCCN(CCCC)CCCNc1nc(NC2CCC2)nc(NC23CC4CC(CC(C4)C2)C3)n1` as the compound, how does the IC50 [2] read?
Answer: Its IC50 is 7.9 µM.

Question: For `CCN(CC)CCCNc1nc(NCCCc2ccccc2)nc(NC23CC4CC(CC(C4)C2)C3)n1`, which IC50 [2] is on record?
Answer: Its IC50 is 3.7 µM.

Question: With `CN(C)CCCNc1nc(NC2CCCCCC2)nc(NC23CC4CC(CC(C4)C2)C3)n1` as the compound, how does the IC50 [2] read?
Answer: The IC50 was 5.7 µM.

Question: Which results are given for `CCCCN(CCCC)CCCNc1nc(NC2CCCCCC2)nc(NC23CC4CC(CC(C4)C2)C3)n1`?
Answer: IC50 [3]: 41 µM; hemolysis at 100 µM [1]: < 10%; IC50 [4]: 620 µM; IC50 [2]: 2.5 µM; IC50 [5]: 53 µM; IC50 [6]: 68 µM; HC50 [7]: > 3.5 mM

Question: With `CCN(CC)CCNc1nc(NC2CCCCCC2)nc(NC23CC4CC(CC(C4)C2)C3)n1` as the compound, how does the IC50 [2] read?
Answer: The IC50 was 5.6 µM.

Question: For `CC1(C)S[C@@H]2[C@H](NC(=O)[C@H](N)c3ccccc3)C(=O)N2[C@H]1C(=O)O`, which Activity [8] is on record?
Answer: The Activity was “inactive”.

Question: With `CN(C)CCNc1nc(NC2CCCCCC2)nc(NC23CC4CC(CC(C4)C2)C3)n1` as the compound, how does the IC50 [2] read?
Answer: The IC50 was 7 µM.

Question: For `CCCCN(CCCC)CCCNc1nc(NCC2CCCCC2)nc(NC23CC4CC(CC(C4)C2)C3)n1`, which IC50 [2] is on record?
Answer: The IC50 was 5.5 µM.

Question: For `CCN(CC)CCCNc1nc(NC2CCCCCC2)nc(NC23CC4CC(CC(C4)C2)C3)n1`, which hemolysis at 100 µM [1] is on record?
Answer: The hemolysis at 100 µM was < 10%.

Question: For `CCCCN(CCCC)CCCNc1nc(NCCCN2CCCC(C)C2)nc(NC23CC4CC(CC(C4)C2)C3)n1` (centres undefined), which hemolysis at 100 µM [1] is on record?
Answer: The hemolysis at 100 µM was < 10%.

Question: For `CCN(CC)CCCNc1nc(NCCc2ccccc2)nc(NC23CC4CC(CC(C4)C2)C3)n1`, which Activity [9] is on record?
Answer: Its Activity is 100%.

Question: What about the IC50 [3] of the same compound?
Answer: The IC50 was 21 µM.

Question: And the IC50 [4]?
Answer: Its IC50 is 200 µM.

Question: And the IC50 [2]?
Answer: The IC50 was 2.7 µM.

Question: What about the IC50 [5] of the same compound?
Answer: Its IC50 is 22 µM.

Question: What about the IC50 [6] of the same compound?
Answer: Its IC50 is 17 µM.

Question: And the HC50 [7]?
Answer: Its HC50 is > 3.5 mM.

Question: For `CCCCN(CCCC)CCCNc1nc(NC23CC4CC(CC(C4)C2)C3)nc(N(CCCC)CCCC)n1`, which IC50 [2] is on record?
Answer: The IC50 was 4.4 µM.

Question: With `CCCCN(CCCC)CCCNc1nc(NC2CC2)nc(NC23CC4CC(CC(C4)C2)C3)n1` as the compound, how does the IC50 [2] read?
Answer: The IC50 was 16.4 µM.

Question: Which hemolysis at 100 µM [1] does the source give for `CCCCN(CCCC)CCCNc1nc(NCCCN(CC)CC)nc(NC23CC4CC(CC(C4)C2)C3)n1` here?
Answer: The hemolysis at 100 µM was < 10%.

Question: Which hemolysis at 100 µM [1] does the source give for `CCCCN(CCCC)CCCNc1nc(NCCc2ccc(OC)cc2)nc(NC23CC4CC(CC(C4)C2)C3)n1` here?
Answer: Its hemolysis at 100 µM is < 10%.

Question: Which IC50 [2] does the source give for `CCCCN(CCCC)CCCNc1nc(NC2CCCCCCCCCCC2)nc(NC23CC4CC(CC(C4)C2)C3)n1` here?
Answer: Its IC50 is 15.9 µM.

Question: What does the source list for `CN(C)c1nc(NC2CCCCCC2)nc(NC23CC4CC(CC(C4)C2)C3)n1`?
Answer: IC50 [2]: > 40 µM; Activity [10]: inactive

Question: Which IC50 [2] does the source give for `CCCCN(CCCC)CCCNc1nc(NC23CC4CC(CC(C4)C2)C3)nc(NC23CC4CC(CC(C4)C2)C3)n1` here?
Answer: The IC50 was 39 µM.

Question: With `CCN(CC)CCCNc1nc(NCCc2ccc(OC)cc2)nc(NC23CC4CC(CC(C4)C2)C3)n1` as the compound, how does the hemolysis at 100 µM [1] read?
Answer: Its hemolysis at 100 µM is < 10%.

Question: With `C[N+](C)(C)CCNc1nc(NC2CCCCCC2)nc(NC23CC4CC(CC(C4)C2)C3)n1` as the compound, how does the IC50 [2] read?
Answer: Its IC50 is 5.3 µM.

Question: For `CN1CCCC1CCNc1nc(NC2CCCCCC2)nc(NC23CC4CC(CC(C4)C2)C3)n1` (centres undefined), which IC50 [2] is on record?
Answer: Its IC50 is 5.9 µM.

Question: For `CCN(CC)CCCNc1nc(NCc2ccc3c(c2)OCO3)nc(NC23CC4CC(CC(C4)C2)C3)n1`, which IC50 [2] is on record?
Answer: The IC50 was 3.5 µM.

Question: With `NCCNc1nc(NC2CCCCCC2)nc(NC23CC4CC(CC(C4)C2)C3)n1` as the compound, how does the IC50 [2] read?
Answer: Its IC50 is 5.9 µM.

Question: Which hemolysis at 100 µM [1] does the source give for `CCCCN(CCCC)CCCNc1nc(NCCCN(CCCC)CCCC)nc(NC23CC4CC(CC(C4)C2)C3)n1` here?
Answer: Its hemolysis at 100 µM is < 10%.

Question: With `CCCCN(CCCC)CCCNc1nc(NC2CCCC2)nc(NC23CC4CC(CC(C4)C2)C3)n1` as the compound, how does the IC50 [2] read?
Answer: Its IC50 is 4.6 µM.

Question: With `CCN(CC)CCCNc1nc(NCc2ccccc2)nc(NC23CC4CC(CC(C4)C2)C3)n1` as the compound, how does the IC50 [2] read?
Answer: The IC50 was 10.6 µM.
